Literature values, collected in patent US9006268B2, “Prolylcarboxypeptidase inhibitors” (Merck Sharp & Dohme Corp., priority 2010, dated 2015).

Key:
[1] = tested on: rats; conditions: intracerebroventricular administration to rats
[2] = tested on: obese, leptin deficient mice; conditions: systemic administration to obese
[3] = literature studies of weight loss medications

Row | Molecule | overnight food intake [1] | overnight food intake [2] | weight loss of body weight for drug compared to placebo [3]
1 | t-butyl carbamate-prolyl prolinal [BPP] | suppression of overnight food intake | suppression of overnight food intake | –
2 | CCCCCCCCCCC[C@@H](C[C@@H]1OC(=O)[C@H]1CCCCCC)OC(=O)[C@H](CC(C)C)NC=O [orlistat] | – | – | 5%-10%
3 | CC(C)(N)Cc1ccccc1 [phentermine] | – | – | 5%-10%
4 | CCN[C@@H](C)Cc1cccc(C(F)(F)F)c1 [dexfenfluramine] | – | – | 5%-10%
5 | CC(C)CC(N(C)C)C1(c2ccc(Cl)cc2)CCC1 (stereo not drawn) [sibutramine] | – | – | 5%-10%
